{"source": "patent US20240124556A1", "about": "“KERATIN BD-3, PREPARATION METHOD THEREFOR AND PHARMACEUTICAL COMPOSITION AND USE THEREOF” (INSTITUTE OF MATERIA MEDICA, CHINESE ACADEMY OF MEDICAL …, priority 2019, published 2024)", "system": "phenol red excretion in mice", "assay": "Expectorant test, phenol red excretion method in mice", "type": "in vivo, ICR mice", "experimental": "• Animals: male ICR mice; • Drugs and reagents: Mucosolvan (ambroxol hydrochloride tablets), phenol red, sodium bicarbonate, protein BD-3; • Instruments: centrifuge (Sigma-3K15 type), balance (XS105DU type), Microplate tester (BIO-TEK type). • Experiment Grouping: • Solvent control group; • Mucosolvan 30 mg/kg group; • Protein BD-3, 20 mg/kg group, 50 mg/kg group.\nThe animals were fasted and water was taken freely 16 hours before the experiment. Orally administered Mucosolvan and different doses of protein BD-3 (administration volume 10 ml/kg) in groups, and the solvent control group was given the same volume of distilled water. One hour later, 2.5% phenol red solution was injected intraperitoneally. Mice were sacrificed by neck dislocation after 30 minutes. […] Measure and record the absorbance at 546 nm. According to the standard curve of phenol red, the excretion of phenol red was calculated.\nRecord the time point of oral administration, the time point of intraperitoneal injection of 2.5% phenol red solution, and the time point of taking the trachea respectively; The absorbance of each group of samples was measured by the microplate reader at 546 nm, Calculate the excretion of phenol red according to the standard curve of phenol red. […]", "note": "Structures can show the parent of a compound that is named as a salt."}
{"smiles": "Nc1c(Br)cc(Br)cc1CN[C@H]1CC[C@H](O)CC1", "note": "[Mucosolvan, ambroxol hydrochloride, reference compound]", "values": [{"measurement": "Phenol red excretion", "setting": "Mucosolvan 30 mg/kg oral, X ± SEM, solvent control 0.506 ± 0.040", "result": "1.061 ± 0.117", "unit": "µg/mL"}, {"measurement": "Amount of phenol red excretion vs solvent control (in words)", "setting": "Mucosolvan 30 mg/kg, P<0.05", "result": "significantly increased"}]}
